ChEMBL document CHEMBL1781957, “Selective and potent agonists for estrogen receptor beta derived from molecular refinements of salicylaldoximes” (Eur J Med Chem, 2011)

Tests used:
[1] = target: T1, Estrogen receptor (Homo sapiens) (UniProt P03372); assay: Displacement of [3H]-estradiol from human full-length ERalpha receptor by competitive radiometric binding assay relative to estradiol
T1 sequence (whole entry): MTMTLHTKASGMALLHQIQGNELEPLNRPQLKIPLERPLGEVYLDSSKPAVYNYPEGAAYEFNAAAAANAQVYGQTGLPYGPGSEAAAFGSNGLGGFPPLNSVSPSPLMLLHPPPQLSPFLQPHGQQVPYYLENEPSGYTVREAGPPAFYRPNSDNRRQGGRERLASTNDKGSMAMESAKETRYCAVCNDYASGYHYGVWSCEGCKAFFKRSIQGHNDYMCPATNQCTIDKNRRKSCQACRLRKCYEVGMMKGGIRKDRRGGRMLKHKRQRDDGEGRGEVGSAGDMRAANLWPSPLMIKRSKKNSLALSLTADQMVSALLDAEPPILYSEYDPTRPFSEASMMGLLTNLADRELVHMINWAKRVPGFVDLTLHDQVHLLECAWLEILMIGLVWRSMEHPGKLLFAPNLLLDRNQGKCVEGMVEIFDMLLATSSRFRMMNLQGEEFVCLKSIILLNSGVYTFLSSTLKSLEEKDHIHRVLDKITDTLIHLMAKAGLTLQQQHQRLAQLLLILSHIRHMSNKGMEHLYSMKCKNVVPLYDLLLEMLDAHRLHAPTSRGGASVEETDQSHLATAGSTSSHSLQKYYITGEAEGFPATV

Estrogen receptor beta [2] = target: T2, Estrogen receptor beta (Homo sapiens, UniProt Q92731); assay: Displacement of [3H]-estradiol from human full-length ERbeta receptor by competitive radiometric binding assay relative to estradiol
[3] = target: T1, Estrogen receptor (Homo sapiens); assay: Agonist activity at human full-length ERalpha receptor expressed in human HEC1 cells co-expressing (ERE)2-pS2-luc gene assessed as transcriptional activation after 24 hrs by luciferase reporter gene assay relative to estradiol; assay type: functional, cell-based; conditions: HEC-1
Estrogen receptor beta [4] = target: T2, Estrogen receptor beta; assay: Agonist activity at human full-length ERbeta receptor expressed in human HEC1 cells co-expressing (ERE)2-pS2-luc gene assessed as transcriptional activation after 24 hrs by luciferase reporter gene assay relative to estradiol; assay type: functional, cell-based; conditions: HEC-1
Estrogen receptor beta [5] = target: T2, Estrogen receptor beta
Estrogen receptor = target: T3, Estrogen receptor (Homo sapiens, UniProt P03372)
T3 sequence (P03372 whole entry): T1 sequence (whole entry)

Estrogen receptor beta [6] = target: T2, Estrogen receptor beta; remark: listed apart in the source

T2 sequence (Q92731 whole entry): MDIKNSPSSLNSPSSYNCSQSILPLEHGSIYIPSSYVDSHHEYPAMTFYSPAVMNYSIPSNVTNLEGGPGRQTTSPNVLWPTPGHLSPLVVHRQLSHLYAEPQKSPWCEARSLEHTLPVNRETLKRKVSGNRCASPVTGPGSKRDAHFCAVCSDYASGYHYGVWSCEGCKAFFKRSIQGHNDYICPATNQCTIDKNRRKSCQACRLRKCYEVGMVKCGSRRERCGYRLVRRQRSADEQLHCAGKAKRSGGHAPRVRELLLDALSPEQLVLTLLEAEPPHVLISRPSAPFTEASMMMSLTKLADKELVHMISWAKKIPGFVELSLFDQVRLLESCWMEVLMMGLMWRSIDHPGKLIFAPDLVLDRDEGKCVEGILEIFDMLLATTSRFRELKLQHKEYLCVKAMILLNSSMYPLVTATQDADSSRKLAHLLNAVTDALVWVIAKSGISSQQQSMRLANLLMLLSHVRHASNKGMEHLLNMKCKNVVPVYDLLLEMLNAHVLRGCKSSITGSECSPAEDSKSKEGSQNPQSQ

Row | SMILES | RBA [1] [%] | RBA (Estrogen receptor beta [2]) [%] | Emax [3] [%] | Emax (Estrogen receptor beta [4]) [%] | EC50 (Estrogen receptor beta [5]) [nM] | EC50 (Estrogen receptor) [nM] | Ki (Estrogen receptor beta [6]) [nM]
1 | Cc1c(-c2ccc(O)c(F)c2)cc(Cl)c(O)c1/C=N/O | 0.39 | 7.9 | – | – | – | – | –
2 | Cc1c(-c2ccc(O)cc2)cc(Cl)c(O)c1/C=N/O | 1.47 | 15.8 | – | – | – | – | –
3 | Cc1cc(-c2ccc(O)cc2)c(Cl)c(/C=N/O)c1O | 0.074 | 0.64 | – | – | – | – | –
4 | O/N=C/c1ccc(-c2ccc(O)cc2)c(-c2ccc(O)cc2)c1O | 0.92 | 0.35 | – | – | – | – | –
5 | O/N=C/c1c(O)ccc(-c2ccc(O)cc2)c1-c1ccc(O)cc1 | 88.4 | 101 | 90 | 80 | 0.5 | 0.3 | –
6 | O/N=C/c1c(O)ccc(-c2ccc(O)cc2)c1Cl | 4.46 | 130 | 100 | 100 | 0.23 | 0.58 | 0.38
7 | O/N=C/c1c(O)ccc(-c2ccc(O)c(F)c2)c1Cl | 1.88 | 87.1 | 100 | 100 | 1.3 | 8.4 | 0.57
